{"source": "ChEMBL document CHEMBL5550189", "about": "“Discovery of GS-7682, a Novel 4'-Cyano-Modified C-Nucleoside Prodrug with Broad Activity against Pneumo- and Picornaviruses and Efficacy in RSV-Infected African Green Monkeys” (J Med Chem, 2024)", "key": {"Human metapneumovirus": {"system": "Human metapneumovirus", "assay": "Anti-viral activity against hMPV CAN99-81 (A1 genotype) infected in rhesus monkey LLC-MK2 cells incubated for 90 mins", "assay_type": "functional, organism-based", "conditions": "LLC-MK2, 1.5 h"}, "[1]": {"assay": "Drug metabolism in African green monkey assessed as Cmax of (2R,3S,4R,5S)-5-(4-aminopyrrolo[2,1-f][1,2,4]triazin-7-yl)-3,4-dihydroxy-2-(hydroxymethyl)tetrahydrofuran-2-carbonitrile metabolite at lung-deposited dose of 5.9 mg/kg, IT measured after 24 hrs by LC-MS/MS analysis", "assay_type": "ADME, organism-based", "conditions": "chlorocebus aethiops, in vivo, other"}, "[2]": {"assay": "Prodrug conversion in D-HBE-As cells assessed as ((2R,3S,4R,5S)-5-(4-aminopyrrolo[2,1-f][1,2,4]triazin-7-yl)-2-cyano-3,4-dihydroxytetrahydrofuran-2-yl)methyl tetrahydrogen triphosphate formation measured per million cells at 1 uM measured after 48 hrs by LC-MS/MS analysis", "assay_type": "ADME, cell-based", "conditions": "human"}, "[3]": {"system": "Respiratory syncytial virus", "assay": "Antiviral activity against RSV infected in African green monkey assessed as reduction in viral replication in BAL at lung-deposited dose of 1.6 to 7.6 mg/kg, IT qd for 6 days measured for 15 days by RT-qPCR analysis relative to control", "assay_type": "functional", "design": "scale not given: the % may be the effect or the level left", "conditions": "dose 1.6-7.6 mg/kg, time 15 day, at 1.6 to 7.6 mg/kg"}, "[4]": {"system": "Respiratory syncytial virus", "assay": "Antiviral activity against RSV A2 infected in Normal human bronchial epithelial cells assessed as inhibition of intracellular virus replication", "assay_type": "functional, organism-based", "conditions": "A2, Epithelial cell"}, "[5]": {"system": "Respiratory syncytial virus", "assay": "Antiviral activity against RSV A2 infected in D-HBE-As cells assessed as inhibition of intracellular virus replication", "assay_type": "functional, organism-based", "conditions": "human respiratory syncytial virus"}, "[6]": {"assay": "Drug concentration in lung of African green monkey at lung-deposited dose of 5.9 mg/kg, IT measured after 24 hrs by LC-MS/MS analysis", "assay_type": "ADME, organism-based", "conditions": "chlorocebus aethiops, in vivo, other"}, "[7]": {"system": "Respiratory syncytial virus", "assay": "Antiviral activity against RSV A2 infected in human HEp-2 cells incubated for 4 days by Cell Titer Glo assay", "assay_type": "functional, organism-based", "conditions": "A2, HEp-2, 96 h"}, "[8]": {"assay": "Half life in Cynomolgous monkey at lung-deposited dose of 4 mg/kg, IT measured after 24 hrs by LC-MS/MS analysis", "assay_type": "ADME, organism-based, Macaca fascicularis", "conditions": "cynomolgus monkey, in vivo"}, "[9]": {"system": "Respiratory syncytial virus", "assay": "(§1) Antiviral activity against RSV A2 infected in human airway epithelium transwell culture assessed as decrease in viral RNA level by measuring log10 reduction in median viral load at 0.25 uM pretreated at apical side for 3 hrs followed by compound washout and subsequent viral infection at apical side for 3 hrs followed by removal of virus and recurrent addition of compound on day 0 at apical side measured on day 3 by RT-qPCR analysis", "assay_type": "functional", "conditions": "time 75 hrs"}, "[10]": {"assay": "Drug concentration in lung of Cynomolgous monkey measured per gram of tissue at 5 mg/kg, iv measured after 24 hrs by LC-MS/MS analysis", "assay_type": "ADME, organism-based, Macaca fascicularis", "conditions": "cynomolgus monkey, in vivo"}, "[11]": {"assay": "Cytotoxicity against MDCK cells by MTS assay", "assay_type": "toxicity, cell-based, Canis lupus familiaris", "conditions": "dog"}, "[12]": {"system": "Respiratory syncytial virus", "assay": "as §1, with “0.05” for “0.25”", "assay_type": "functional", "conditions": "time 75 hrs"}, "[13]": {"system": "Respiratory syncytial virus", "assay": "Antiviral activity against RSV infected in African green monkey assessed as reduction in viral load in BAL at lung-deposited dose of 1.6 to 7.6 mg/kg, IT qd for 6 days measured on day 11 by RT-qPCR analysis", "assay_type": "functional, organism-based", "conditions": "dose 1.6-7.6 mg/kg, time 11.0 day"}, "[14]": {"assay": "Drug metabolism in Cynomolgous monkey assessed as Cmax of (2R,3S,4R,5S)-5-(4-aminopyrrolo[2,1-f][1,2,4]triazin-7-yl)-3,4-dihydroxy-2-(hydroxymethyl)tetrahydrofuran-2-carbonitrile metabolite at 5 mg/kg, iv measured after 30 mins by LC-MS/MS analysis", "assay_type": "ADME, organism-based, Macaca fascicularis", "conditions": "cynomolgus monkey, in vivo, 0.5 h"}, "[15]": {"assay": "Cmax in Cynomolgous monkey at lung-deposited dose of 4 mg/kg, IT measured after 24 hrs by LC-MS/MS analysis", "assay_type": "ADME, organism-based, Macaca fascicularis", "conditions": "cynomolgus monkey, in vivo"}, "[16]": {"assay": "Cmax in African green monkey at lung-deposited dose of 5.9 mg/kg, IT measured after 24 hrs by LC-MS/MS analysis", "assay_type": "ADME, organism-based", "conditions": "chlorocebus aethiops, in vivo"}, "[17]": {"assay": "Prodrug conversion in Normal human bronchial epithelial cells assessed as ((2R,3S,4R,5S)-5-(4-aminopyrrolo[2,1-f][1,2,4]triazin-7-yl)-2-cyano-3,4-dihydroxytetrahydrofuran-2-yl)methyl tetrahydrogen triphosphate formation measured per million cells at 10 uM incubated for 2 hrs by LC-MS/MS analysis", "assay_type": "ADME, cell-based", "conditions": "epithelial cell"}, "Influenza A virus": {"system": "Influenza A virus", "assay": "Anti-viral activity against Influenza A (H1N1) infected in MDCK cells by MTS assay", "assay_type": "functional, organism-based", "conditions": "H"}, "[18]": {"system": "Respiratory syncytial virus", "assay": "as §1, with “on day 1 and 2 at basolateral” for “on day 0 at apical”, “2 at basolateral side measured” for “0 at apical side measured”", "assay_type": "functional", "conditions": "time 75 hrs"}, "[19]": {"assay": "Cytotoxicity against human Hep-2 cells incubated for 4 to 5 days by Cell Titer Glo assay", "assay_type": "toxicity, cell-based", "conditions": "time 4-5 day"}, "[20]": {"system": "Respiratory syncytial virus", "assay": "Antiviral activity against RSV infected in African green monkey assessed as reduction in viral RNA copies in BAL at lung-deposited dose of 1.6 to 7.6 mg/kg, IT qd for 6 days measured for 3 to 11 days by RT-qPCR analysis", "assay_type": "functional, organism-based", "conditions": "dose 1.6-7.6 mg/kg, time 11.0 day"}, "[21]": {"assay": "Drug metabolism in African green monkey assessed as AUC (0 to 24 hrs) of (2R,3S,4R,5S)-5-(4-aminopyrrolo[2,1-f][1,2,4]triazin-7-yl)-3,4-dihydroxy-2-(hydroxymethyl)tetrahydrofuran-2-carbonitrile metabolite at lung-deposited dose of 5.9 mg/kg, IT measured after 24 hrs by LC-MS/MS analysis", "assay_type": "ADME, organism-based", "conditions": "chlorocebus aethiops, in vivo, other"}, "[22]": {"assay": "AUC (0 to 24 hrs) in Cynomolgous monkey at lung-deposited dose of 4 mg/kg, IT measured after 24 hrs by LC-MS/MS analysis", "assay_type": "ADME, organism-based, Macaca fascicularis", "conditions": "cynomolgus monkey, in vivo"}, "[23]": {"assay": "Drug metabolism in Cynomolgous monkey assessed as half life of (2R,3S,4R,5S)-5-(4-aminopyrrolo[2,1-f][1,2,4]triazin-7-yl)-3,4-dihydroxy-2-(hydroxymethyl)tetrahydrofuran-2-carbonitrile metabolite at lung-deposited dose of 4 mg/kg, IT measured after 24 hrs by LC-MS/MS analysis", "assay_type": "ADME, organism-based, Macaca fascicularis", "conditions": "cynomolgus monkey, in vivo, other"}, "[24]": {"assay": "Drug metabolism in African green monkey assessed as half life of (2R,3S,4R,5S)-5-(4-aminopyrrolo[2,1-f][1,2,4]triazin-7-yl)-3,4-dihydroxy-2-(hydroxymethyl)tetrahydrofuran-2-carbonitrile metabolite at lung-deposited dose of 5.9 mg/kg, IT measured after 24 hrs by LC-MS/MS analysis", "assay_type": "ADME, organism-based", "conditions": "chlorocebus aethiops, in vivo, other"}, "[25]": {"system": "Respiratory syncytial virus", "assay": "Antiviral activity against RSV A2 infected in H1-HeLa cells assessed as inhibition of intracellular virus replication", "assay_type": "functional, organism-based", "conditions": "human respiratory syncytial virus"}, "[26]": {"assay": "Drug metabolism in Cynomolgous monkey assessed as AUC (0 to 24 hrs) of (2R,3S,4R,5S)-5-(4-aminopyrrolo[2,1-f][1,2,4]triazin-7-yl)-3,4-dihydroxy-2-(hydroxymethyl)tetrahydrofuran-2-carbonitrile metabolite at 5 mg/kg, iv measured after 30 mins by LC-MS/MS analysis", "assay_type": "ADME, organism-based, Macaca fascicularis", "conditions": "cynomolgus monkey, in vivo, 0.5 h"}}, "note": "Calls of active or inactive are those of the source. The rule behind the calls is not given here.", "data": [{"compound": "COC(=O)[C@H](C)N[P@](=O)(OC[C@@]1(C#N)O[C@@H](c2ccc3c(N)ncnn23)[C@H](OC(=O)C(C)C)[C@@H]1OC(=O)C(C)C)Oc1ccccc1", "values": [{"measurement": "EC50", "setting": "Human metapneumovirus", "result": 210, "unit": "nM"}, {"measurement": "Cmax", "setting": "[1]", "result": 220, "unit": "nM"}, {"measurement": "Drug metabolism", "setting": "[2]", "result": 113.3, "unit": "pM"}, {"measurement": "Activity", "setting": "[3]", "result": ">99.99", "unit": "%"}, {"measurement": "IC50", "setting": "[4]", "result": "< 38", "unit": "nM"}, {"measurement": "IC50", "setting": "[5]", "result": 97, "unit": "nM"}, {"measurement": "Drug uptake", "setting": "[6]", "result": 24.6, "unit": "nmol"}, {"measurement": "EC50", "setting": "[7]", "result": 46, "unit": "nM"}, {"measurement": "half-life", "setting": "[8]", "result": 13, "unit": "h"}, {"measurement": "Activity", "setting": "[9]", "result": 1.9, "unit": "log10/ml"}, {"measurement": "Drug uptake", "setting": "[10]", "result": 4.28, "unit": "nmol/g"}, {"measurement": "CC50", "setting": "[11]", "result": "> 2000", "unit": "nM"}, {"measurement": "Activity", "setting": "[12]", "result": 0.2, "unit": "log10/ml"}, {"measurement": "Activity", "setting": "[13]", "result": "Active"}, {"measurement": "Cmax", "setting": "[14]", "result": 961, "unit": "nM"}, {"measurement": "Cmax", "setting": "[15]", "result": 620, "unit": "nM"}, {"measurement": "Cmax", "setting": "[16]", "result": 610, "unit": "nM"}, {"measurement": "Drug metabolism", "setting": "[17]", "result": 916, "unit": "pM"}, {"measurement": "EC50", "setting": "Influenza A virus", "result": "> 2000", "unit": "nM"}, {"measurement": "Activity", "setting": "[18]", "result": 2.5, "unit": "log10/ml"}, {"measurement": "CC50", "setting": "[19]", "result": 22700, "unit": "nM"}, {"measurement": "Activity", "setting": "[20]", "result": "Active"}, {"measurement": "AUC", "setting": "[21]", "result": 3.39, "unit": "µM·h"}, {"measurement": "AUC(0-t) at 24 h", "setting": "[22]", "result": 1.86, "unit": "µM·h"}, {"measurement": "t1/2", "setting": "[23]", "result": 38.8, "unit": "h"}, {"measurement": "t1/2", "setting": "[24]", "result": 14.7, "unit": "h"}, {"measurement": "IC50", "setting": "[25]", "result": 84, "unit": "nM"}, {"measurement": "AUC", "setting": "[26]", "result": 6.03, "unit": "µM·h"}]}]}
